Data on 15 compounds can be found in ChEMBL document CHEMBL1909046, “DrugMatrix in vitro pharmacology data”.

Test [1] addresses T1, Alpha-1A adrenergic receptor (Rattus norvegicus, UniProt P43140).
T1 sequence (P43140 whole entry): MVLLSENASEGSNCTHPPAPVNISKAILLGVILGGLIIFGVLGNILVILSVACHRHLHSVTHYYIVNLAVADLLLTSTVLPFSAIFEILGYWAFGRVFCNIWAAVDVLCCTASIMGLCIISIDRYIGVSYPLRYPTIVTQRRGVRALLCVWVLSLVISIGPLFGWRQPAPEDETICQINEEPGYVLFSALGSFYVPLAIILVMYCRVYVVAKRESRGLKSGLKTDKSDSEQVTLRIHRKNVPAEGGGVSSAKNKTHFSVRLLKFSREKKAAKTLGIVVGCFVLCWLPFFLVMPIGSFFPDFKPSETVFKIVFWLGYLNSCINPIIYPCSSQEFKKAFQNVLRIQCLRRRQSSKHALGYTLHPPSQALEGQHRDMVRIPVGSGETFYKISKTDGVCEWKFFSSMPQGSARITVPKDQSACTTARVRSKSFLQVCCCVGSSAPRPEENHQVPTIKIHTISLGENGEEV
The experiment in a line: DRUGMATRIX: Alpha-1A adrenergic receptor radioligand binding (ligand: prazosin). In kind it is cell membranes, Wistar, Submaxillary gland, Membrane. The following applies: Not Active = under 50% inhibition at 10 µM.

Test [2] deals with Sodium-dependent noradrenaline transporter (Homo sapiens, UniProt P23975). Description: DRUGMATRIX: Norepinephrine Transporter radioligand binding (ligand: [125I] RTI-55). It counts as cell membranes, MDCK, Membrane. The following applies: Not Active = under 50% inhibition at 10 µM; for Ki: read-out: Ki.
Sodium-dependent noradrenaline transporter, sequence (P23975 whole entry): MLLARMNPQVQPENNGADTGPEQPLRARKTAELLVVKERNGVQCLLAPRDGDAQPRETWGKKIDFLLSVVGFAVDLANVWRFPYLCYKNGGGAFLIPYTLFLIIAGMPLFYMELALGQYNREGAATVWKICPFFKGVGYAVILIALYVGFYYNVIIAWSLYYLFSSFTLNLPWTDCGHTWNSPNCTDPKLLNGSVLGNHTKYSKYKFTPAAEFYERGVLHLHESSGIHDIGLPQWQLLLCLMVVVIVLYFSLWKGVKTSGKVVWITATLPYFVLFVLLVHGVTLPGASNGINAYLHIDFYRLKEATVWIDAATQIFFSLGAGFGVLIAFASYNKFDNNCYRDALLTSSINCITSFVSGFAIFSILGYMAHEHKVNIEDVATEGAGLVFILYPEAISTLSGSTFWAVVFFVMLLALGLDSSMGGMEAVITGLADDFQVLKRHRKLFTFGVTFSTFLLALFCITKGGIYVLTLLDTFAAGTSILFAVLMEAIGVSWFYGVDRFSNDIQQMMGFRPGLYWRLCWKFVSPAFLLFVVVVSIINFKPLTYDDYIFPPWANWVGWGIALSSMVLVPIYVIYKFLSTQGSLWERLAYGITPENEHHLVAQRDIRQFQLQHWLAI
For test [3], the target named is Aldo-keto reductase family 1 member B1 (Rattus norvegicus, UniProt P07943). Description: biochemical. It counts as tissue-based, Lens of camera-type eye.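 Also: inhibition of aldose reductase enzyme activity, measured with DL-glyceraldehyde as the substrate; in other assays of this panel Not Active means under 50% inhibition at 10 µM.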
The target in a further test is Vasopressin V1a receptor (Homo sapiens, UniProt P37288). In kind it is cell membranes, Membrane. The following applies: hek293. Also: in other assays of this panel Not Active means under 50% inhibition at 10 µM.
Vasopressin V1a receptor, sequence (P37288 whole entry): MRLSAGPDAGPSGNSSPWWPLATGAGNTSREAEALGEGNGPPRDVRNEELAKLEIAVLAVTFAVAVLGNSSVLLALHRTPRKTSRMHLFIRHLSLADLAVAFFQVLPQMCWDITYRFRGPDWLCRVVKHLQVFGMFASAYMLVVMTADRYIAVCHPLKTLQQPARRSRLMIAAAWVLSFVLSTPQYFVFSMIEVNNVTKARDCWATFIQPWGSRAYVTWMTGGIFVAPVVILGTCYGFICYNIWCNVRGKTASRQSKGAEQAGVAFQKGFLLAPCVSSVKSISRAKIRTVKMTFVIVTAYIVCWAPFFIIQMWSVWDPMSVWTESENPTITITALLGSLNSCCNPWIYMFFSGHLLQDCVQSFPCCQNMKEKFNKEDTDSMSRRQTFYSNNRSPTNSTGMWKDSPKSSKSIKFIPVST
Test [4] has as its target T2, Polyunsaturated fatty acid lipoxygenase ALOX15 (Oryctolagus cuniculus, UniProt P12530).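 Also: inhibition of 15-lipoxygenase enzyme activity measured with linoleic acid as the substrate; in other assays of this panel Not Active means under 50% inhibition at 10 µM.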
T2 sequence (P12530 whole entry): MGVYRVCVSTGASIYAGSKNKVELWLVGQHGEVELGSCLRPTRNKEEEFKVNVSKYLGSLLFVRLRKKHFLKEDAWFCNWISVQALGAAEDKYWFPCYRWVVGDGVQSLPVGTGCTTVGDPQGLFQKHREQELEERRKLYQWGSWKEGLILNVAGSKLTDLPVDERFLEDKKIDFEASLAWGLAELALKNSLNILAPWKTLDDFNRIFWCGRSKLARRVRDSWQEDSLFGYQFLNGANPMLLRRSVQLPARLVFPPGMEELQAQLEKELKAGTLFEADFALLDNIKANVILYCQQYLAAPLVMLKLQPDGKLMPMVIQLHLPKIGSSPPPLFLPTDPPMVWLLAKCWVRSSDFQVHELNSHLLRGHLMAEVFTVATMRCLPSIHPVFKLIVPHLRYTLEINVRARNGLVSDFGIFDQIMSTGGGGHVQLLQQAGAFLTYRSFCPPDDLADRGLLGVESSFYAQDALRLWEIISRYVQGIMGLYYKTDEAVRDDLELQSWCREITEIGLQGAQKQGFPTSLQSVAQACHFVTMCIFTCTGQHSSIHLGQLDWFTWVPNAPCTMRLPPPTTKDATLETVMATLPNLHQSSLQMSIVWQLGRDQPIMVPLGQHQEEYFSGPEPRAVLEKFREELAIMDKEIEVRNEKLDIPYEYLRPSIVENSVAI
The experiment in a line: biochemical. In kind it is tissue-based, Reticulocytes.

The target of the next test is Mu-type opioid receptor (Homo sapiens, UniProt P35372). Description: DRUGMATRIX: Opiate mu (OP3, MOP) radioligand binding (ligand: [3H] Diprenorphine). In kind it is cell membranes, CHO-K1, Membrane. The following applies: Not Active = under 50% inhibition at 10 µM.
Mu-type opioid receptor, sequence (P35372 whole entry): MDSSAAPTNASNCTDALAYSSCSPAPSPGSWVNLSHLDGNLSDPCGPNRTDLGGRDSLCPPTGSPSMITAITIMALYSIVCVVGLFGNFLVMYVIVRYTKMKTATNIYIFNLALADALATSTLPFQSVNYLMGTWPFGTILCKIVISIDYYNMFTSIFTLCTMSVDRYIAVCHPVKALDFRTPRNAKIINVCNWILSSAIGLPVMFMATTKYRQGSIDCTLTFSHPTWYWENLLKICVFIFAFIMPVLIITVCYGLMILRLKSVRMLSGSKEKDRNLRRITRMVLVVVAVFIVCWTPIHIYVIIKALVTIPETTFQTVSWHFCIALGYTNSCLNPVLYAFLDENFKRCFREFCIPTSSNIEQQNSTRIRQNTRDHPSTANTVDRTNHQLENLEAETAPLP

Usually IC50 stands for the concentration that gives 50% inhibition. With `COc1c(C)c2c(c(O)c1C/C=C(\C)CCC(=O)O)C(=O)OC2` [MYCOPHENOLIC ACID], the half-maximal inhibitory concentration (IC50) entry (in test [1]; in test [2] (mdck); in test [3]; at Vasopressin V1a receptor; in test [4] (reticulocytes); at Mu-type opioid receptor (cho-k1)) was “Not Active” throughout.
One may read the Ki as the equilibrium dissociation constant of an inhibitor or competing ligand from its target. `CC/C(=C(\c1ccccc1)c1ccc(OCCN(C)C)cc1)c1ccccc1` [TAMOXIFEN]: the IC50 in test [1] (read-out: IC50) is 22.1 µM; in test [2] (read-out: IC50), 1.47 µM; in test [3] it was “Not Active”; against Vasopressin V1a receptor, “Not Active”; in test [4] (reticulocytes) it was “Not Active”; on Mu-type opioid receptor (read-out: IC50), 17.6 µM. Further, the inhibitory constant (Ki) in test [1] (read-out: Ki) came to 8.92 µM; in test [2] it was 1.46 µM; on Mu-type opioid receptor, 7.14 µM.
Take `CO[C@H]1/C=C/O[C@@]2(C)Oc3c(C)c(O)c4c(O)c(c(/C=N/N5CCN(C)CC5)c(O)c4c3C2=O)NC(=O)/C(C)=C\C=C\[C@H](C)[C@H](O)[C@@H](C)[C@@H](O)[C@@H](C)[C@H](OC(C)=O)[C@@H]1C` [RIFAMPIN]: the concentration for half-maximal inhibition (IC50) entry was “Not Active” in test [1]; “Not Active” in test [2] (mdck); “Not Active” in test [3]; “Not Active” at Vasopressin V1a receptor; 2.95 µM in test [4] (read-out: IC50); “Not Active” on Mu-type opioid receptor (cho-k1).
Consider `O=NN(CCCl)C(=O)NC1CCCCC1` [LOMUSTINE], for which the IC50 result (in test [1]; in test [2] (mdck); in test [3]; against Vasopressin V1a receptor; in test [4] (reticulocytes); at Mu-type opioid receptor (cho-k1)) was “Not Active” each time.
As for `CSc1ccc(/C=C2/C(C)=C(CC(=O)O)c3cc(F)ccc32)cc1` [SULINDAC SULFIDE], the IC50 result in test [1] is “Not Active”; in test [2] (mdck), “Not Active”; in test [3] (read-out: IC50), 0.084 µM; on Vasopressin V1a receptor, “Not Active”; in test [4] (reticulocytes) it was “Not Active”; on Mu-type opioid receptor (read-out: IC50), 33.7 µM. The compound further registered an inhibitory constant (Ki) on Mu-type opioid receptor of 13.7 µM.
As for `Nc1nc2ccc(OC(F)(F)F)cc2s1` [RILUZOLE], the 50% inhibitory concentration (IC50) result in test [1] was “Not Active”; in test [2] (read-out: IC50) it was 1.73 µM; in test [3], “Not Active”; on Vasopressin V1a receptor, “Not Active”; in test [4] (reticulocytes), “Not Active”; at Mu-type opioid receptor (cho-k1) it was “Not Active”. For the same compound, in test [2], the Ki was 1.72 µM.
Turning to `Cc1noc(NS(=O)(=O)c2ccc(N)cc2)c1C` [SULFISOXAZOLE], the half-maximal inhibitory concentration (IC50) result (in test [1]; in test [2] (mdck); in test [3]; at Vasopressin V1a receptor; in test [4] (reticulocytes); on Mu-type opioid receptor (cho-k1)) was “Not Active” throughout.
For the compound `Cc1cccc(N(C)C(=S)Oc2ccc3ccccc3c2)c1` [TOLNAFTATE], the half-inhibitory concentration (IC50) entry (in test [1]; in test [2] (mdck); in test [3]; against Vasopressin V1a receptor; in test [4] (reticulocytes); on Mu-type opioid receptor (cho-k1)) was “Not Active” throughout.
In the case of `CCOC(=O)N1CCC(=C2c3ccc(Cl)cc3CCc3cccnc32)CC1` [LORATADINE], the IC50 result (in test [1]; in test [2] (mdck); in test [3]; at Vasopressin V1a receptor; in test [4] (reticulocytes); on Mu-type opioid receptor (cho-k1)) was “Not Active” each time.
For the compound `CC(=O)[C@@]1(O)CC[C@H]2[C@@H]3C[C@H](C)C4=CC(=O)CC[C@]4(C)[C@H]3CC[C@@]21C`, the IC50 entry (in test [1]; in test [2] (mdck); in test [3]; on Vasopressin V1a receptor; in test [4] (reticulocytes); at Mu-type opioid receptor (cho-k1)) was “Not Active” in each case.
As to `Nc1nc2nc[nH]c2c(=S)[nH]1` [THIOGUANINE], the half-maximal inhibitory concentration (IC50) entry was “Not Active” in test [1]; “Not Active” in test [2] (mdck); “Not Active” in test [3]; “Not Active” at Vasopressin V1a receptor; 16.2 µM in test [4] (read-out: IC50); “Not Active” at Mu-type opioid receptor (cho-k1).
As to `COc1nc(C)nc(Cl)c1NC1=NCCN1` [MOXONIDINE], the IC50 result (in test [1]; in test [2] (mdck); in test [3]; against Vasopressin V1a receptor; in test [4] (reticulocytes); on Mu-type opioid receptor (cho-k1)) was “Not Active” in each case.
For `N[C@@H](Cc1cc(I)c(Oc2ccc(O)c(I)c2)c(I)c1)C(=O)O` [LIOTHYRONINE], the IC50 entry (in test [1]; in test [2] (mdck); in test [3]; against Vasopressin V1a receptor; in test [4] (reticulocytes); at Mu-type opioid receptor (cho-k1)) was “Not Active” in each case.
On to `C[C@@H]1CN(c2c(F)c(N)c3c(=O)c(C(=O)O)cn(C4CC4)c3c2F)C[C@H](C)N1` [SPARFLOXACIN], for which the IC50 result (in test [1]; in test [2] (mdck); in test [3]; at Vasopressin V1a receptor; in test [4] (reticulocytes); on Mu-type opioid receptor (cho-k1)) was “Not Active” each time.
Turning to `N[C@@H](Cc1ccc(O)c(O)c1)C(=O)O` [LEVODOPA], the IC50 result in test [1] is “Not Active”; in test [2] (mdck) it was “Not Active”; in test [3], “Not Active”; against Vasopressin V1a receptor it was “Not Active”; in test [4] (read-out: IC50) it was 2.26 µM; at Mu-type opioid receptor (cho-k1), “Not Active”.
